Assay [1] addresses Glutaminyl-peptide cyclotransferase-like protein (Homo sapiens, UniProt Q9NXS2). In words: Biochemical QPCT and QPCTL Activity Assay. Here is the method:
(§1) QPCT or QPCTL dependent conversion of N-terminal glutamine to pyroglutamate of CD47 was monitored via MALDI-TOF MS. Test compounds were dissolved in 100% DMSO and serially diluted into clear 1,536-well microtiter plates. Enzymatic reactions were set up in assay buffer containing 20 mM Tris pH 7.5, 0.1 mM TCEP, 0.01% BSA, and 0.001% Tween20. […] The plates were incubated for 10 min in a humidified incubator at 24° C. Subsequently, 2.5 μL of CD47 peptide substrate surrogate (19[…]33) was added to each well (final concentration: 10 μM for QPCTL/20 μM for QPCT). The plates were mixed for 30 sec at 1,000 rpm and subsequently incubated for 40 min in a humidified incubator at 24° C. […] The plates were sealed with an adhesive foil, mixed for 30 s at 1,000 rpm and stored at room temperature until preparation of the MALDI target plates. MALDI target plates were prepared as described previously.

Assay [2] has as its target Glutaminyl-peptide cyclotransferase (Homo sapiens, UniProt Q16769). In words: Biochemical QPCT and QPCTL Activity Assay. Here is the method: as §1

Glutaminyl-peptide cyclotransferase-like protein, sequence (Q9NXS2 whole entry): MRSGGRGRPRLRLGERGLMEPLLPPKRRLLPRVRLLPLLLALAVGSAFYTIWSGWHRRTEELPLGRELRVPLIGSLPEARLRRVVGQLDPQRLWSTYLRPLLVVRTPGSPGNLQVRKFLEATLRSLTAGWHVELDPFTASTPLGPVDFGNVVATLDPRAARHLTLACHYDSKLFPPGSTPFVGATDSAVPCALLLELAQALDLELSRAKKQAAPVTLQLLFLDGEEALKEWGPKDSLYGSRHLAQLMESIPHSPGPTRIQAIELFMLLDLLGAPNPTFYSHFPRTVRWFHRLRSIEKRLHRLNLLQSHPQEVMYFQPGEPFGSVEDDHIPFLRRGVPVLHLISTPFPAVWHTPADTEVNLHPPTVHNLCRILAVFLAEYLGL
Glutaminyl-peptide cyclotransferase, sequence (Q16769 whole entry): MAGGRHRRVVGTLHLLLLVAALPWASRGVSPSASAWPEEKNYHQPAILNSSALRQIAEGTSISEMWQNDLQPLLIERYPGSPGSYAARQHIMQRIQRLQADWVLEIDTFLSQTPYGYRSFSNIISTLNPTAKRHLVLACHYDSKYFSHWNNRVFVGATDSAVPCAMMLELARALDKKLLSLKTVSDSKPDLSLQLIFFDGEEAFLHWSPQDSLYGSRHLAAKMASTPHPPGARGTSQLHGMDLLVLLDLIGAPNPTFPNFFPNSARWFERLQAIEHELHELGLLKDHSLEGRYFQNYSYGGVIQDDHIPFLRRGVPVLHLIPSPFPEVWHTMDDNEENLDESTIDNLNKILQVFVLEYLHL

The IC50 is the concentration at which inhibition is half-maximal. Turning to `Cn1cnnc1C1(F)CCN(c2c(C#N)cccc2-c2cnc3nn(CC(F)(F)F)cc3c2)CC1` [US20240246981, Example 55], in assay [1], the midpoint of inhibition, the IC50, lay at 1 nM.
As for `Cn1cnnc1C1CCN(c2c(C#N)cccc2-c2cnc(F)c(OC(F)F)c2)CC1` [US20240246981, Example 37], the IC50 in assay [2] came to 28 nM; in assay [1], 8 nM.
For `Cn1cnnc1C1(C)CCN(c2c(C#N)cccc2-c2cccnc2)CC1` [US20240246981, Example 65], the IC50 amounted to 9 nM in assay [2] and 26 nM in assay [1].
`Cn1cnnc1C1CCN(c2c(C#N)cccc2-c2cnc3nn(C)c(C(F)(F)F)c3c2)CC1` [US20240246981, Example 41]: the IC50 in assay [2] came out at 9 nM.
As for `Cn1cnnc1C1CCN(c2c(C#N)cccc2-c2cncc(OC(F)F)c2)CC1` [US20240246981, Example 23], the results for the concentration for half-maximal inhibition (IC50) in assay [2] and in assay [1] were 162 nM and 31 nM, respectively.
Regarding `Cn1cnnc1C1CCN(c2c(C#N)cccc2-c2cncc(-c3ccccc3)c2)CC1` [US20240246981, Example 21], the IC50 in assay [2] amounted to 195 nM; in assay [1], 50 nM.
`Cn1cnnc1C1CCN(c2c(C#N)cccc2-c2cnc(F)c(Oc3ccccc3)c2)CC1` [US20240246981, Example 38] displayed an IC50 in assay [1] of 13 nM.
On the same count and under the same terms, in the case of `Cn1cnnc1C1(F)CCN(c2c(C#N)cccc2-c2cnc(=O)n(C)c2)CC1` [US20240246981, Example 58] it was 1 nM.
Take `Cn1cnnc1C1CCN(c2c(C#N)cccc2-c2cnc(F)c(OC3CCC3)c2)CC1` [US20240246981, Example 34]: the IC50 in assay [2] stood at 6 nM; in assay [1], 1 nM.
